Test results as given in patent publication US20050009845A1, “Thienopyrimidine compounds as protein tyrosine kinase inhibitors” (priority 2001, published 2005).
Where a name gives a salt, the structure may show the parent alone.

Tests used:
ErbB-2 = target: T1, ErbB-2 (Homo sapiens, UniProt P04626); assay: ErbB-2 substrate phosphorylation enzyme assay (scintillation proximity); format: biochemical; details: ErbB-2, pIC50 classes
T1 construct: made in house
Description: Compounds of the present invention were tested for EGFR, ErbB-2, and ErbB-4 protein tyrosine kinase inhibitory activity in substrate phosphorylation assays using enzymes purified from a baculovirus expression system. Reagent production and assay methodology were conducted essentially as described (Brignola, P.S., et al, (2002) J. Biol. Chem. v. 277 in press).
The method measures the ability of the isolated enzyme to catalyse the transfer of the γ-phosphate from ATP onto tyrosine residues in a biotinylated synthetic peptide (biotin-Ahx-RAHEEIYHFFFAKKK-amide). Reactions were performed in 96-well polystyrene round-bottom plates in a final volume of 45 μL. Reaction mixtures contained 50 mM MOPS (pH 7.5), 2 mM MnCl2, 10 μM ATP, 0.125 μCi [γ-^33P] ATP per reaction, 2 μM peptide substrate, and I mM dithiothreitol. Reactions were initiated by adding 1 pmol (20 nM) per reaction of the indicated enzyme. The reaction was allowed to proceed for 15 minutes, terminated and quantified using a scintillation proximity assay procedure as described in McDonald, O. B., Antonsson, B., Arkinstal, S., Marshall, C. J., and Wood, E. R. (1999) Analytical Biochemistry, 268, 318-329.
Compounds under analysis were dissolved in Me2SO to 0.5 mM and serially diluted 1 to 3 with Me2SO through eleven columns of a 96 well plate. 1 μL of each concentration was transferred to the corresponding well of the assay plate. This creates a final compound concentration range from 0.00019 to 11.1 μM.
The data for dose responses were plotted as % Control calculated with the data reduction formula 100*(U1−C2)/(C1−C2) versus concentration of compound and fitted to the curve described by: y=((Vmax*x)/(K+x)) where Vmax is the upper asymptote and K is the IC50. Cellular assays: Methylene Blue Growth Inhibition Assay

BT474 tumor cell line = assay: Methylene blue growth inhibition assay, BT474; format: cell-based; details: Homo sapiens, BT-474, 72 h; BT474, 3 days, IC50 classes
Description: Human breast (BT474), head and neck (HN5) and gastric tumor (N87) cell lines and human foreskin Fibroblasts (HFF) were cultured in low glucose DMEM (Life Technologies 12320-032) containing 10% fetal bovine serum (FBS) at 37° C. in a humidified 10% CO2, 90% air incubator. The SV40 transformed human mammary epithelial cell line HB4a was transfected with either human H-ras cDNA (HB4a r4.2) or the human c-ErbB2 cDNA (HB4a c5.2). The HB4a clones were cultured in RPMI containing 10% FBS, insulin (5 μg/ml), hydrocortisone (5 μg/ml), supplemented with the selection agent hygromycin B (50μg/ml). Cells were harvested using trypsin/EDTA, counted using a haemocytometer, and plated in […] of the appropriate media, at the following densities, in a 96-well tissue culture plate (Falcon 3075): BT474 10,000 cells/well, HN5 3,000 cells/well, N87 10,000 cells/well, HB4a c5.2 3,000 cells/well, HB4a r4.2 3,000 cells/well, HFF 2500 cells/well. The next day, compounds were diluted in DMEM containing […] gentamicin, at twice the final required concentration, from 10 mM stock solutions in DMSO. […] of these dilutions were added to the […] of media currently on the cell plates. Medium containing 0.6% DMSO was added to control wells. Compounds diluted in DMEM were added to all cell lines, including the HB4a r4.2 and HB4a c5.2 cell lines. The final concentration of DMSO in all wells was 0.3%. Cells were incubated at 37° C., 10% CO2 for 3 days. Medium was removed by aspiration. Cell biomass was estimated by staining cells with 100 μl per well methylene blue (Sigma M9140, 0.5% in 50:50 ethanol:water), and incubation at room temperature for at least 30 minutes. Stain was removed, and the plates rinsed under a gentle stream of water, and air-dried. To release stain from the cells 100 μl of solubilization solution was added (1% N-lauroyl sarcosine, Sodium salt, Sigma L5125, in PBS), and plates were shaken gently for about 30 minutes. Optical density at 620 nm was measured on a microplate reader. Percent inhibition of cell growth was calculated relative to vehicle treated control wells. Concentration of compound that inhibits 50% of cell growth (IC50) was interpolated using nonlinear regression (Levenberg-Marquardt) and the equation, y=Vmax*(1−(x/(K+x)))+Y2, where “K” was equal to the IC50.
Table I illustrates the inhibitory activity of compounds of the present invention as IC50 values in μM against and the BT474 tumor cell line. Using HFF as a representative, human, normal cell line, values for cytotoxicity are supplied as IC50 values in micromolar.

T1 sequence (P04626 691-1255 limits assumed): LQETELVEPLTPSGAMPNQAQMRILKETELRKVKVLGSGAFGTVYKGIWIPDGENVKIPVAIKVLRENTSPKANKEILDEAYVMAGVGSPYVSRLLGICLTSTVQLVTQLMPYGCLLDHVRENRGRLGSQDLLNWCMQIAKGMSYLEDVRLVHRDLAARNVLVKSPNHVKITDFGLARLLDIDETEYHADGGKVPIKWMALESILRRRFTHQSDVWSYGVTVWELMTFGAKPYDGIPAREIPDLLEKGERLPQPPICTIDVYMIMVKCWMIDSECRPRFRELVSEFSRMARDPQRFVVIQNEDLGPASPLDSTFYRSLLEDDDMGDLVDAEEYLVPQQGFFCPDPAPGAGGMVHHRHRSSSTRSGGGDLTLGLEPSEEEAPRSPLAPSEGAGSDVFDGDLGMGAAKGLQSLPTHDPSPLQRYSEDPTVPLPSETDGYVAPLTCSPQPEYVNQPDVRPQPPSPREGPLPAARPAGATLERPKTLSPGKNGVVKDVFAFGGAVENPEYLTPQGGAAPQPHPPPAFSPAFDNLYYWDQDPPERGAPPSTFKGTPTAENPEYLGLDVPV

| SMILES | IC50 (ErbB-2) | IC50 (BT474 tumor cell line) | melting point |
| --- | --- | --- | --- |
| CS(=O)(=O)CCNCC#Cc1cc2ncnc(Nc3ccc(OCc4cccc(F)c4)c(Cl)c3)c2s1 [N-{3-Chloro-4-[(3-fluorobenzyl)oxy]phenyl}-6-(3-{[2-(methylsulfonyl)ethyl]amino}prop-1-ynyl)thieno[3,2-d]pyrimidin-4-amine hydrochloride] | < 31.6 nM | < 1500 nM | – |
| O=C(NCC#Cc1cc2ncnc(Nc3ccc(OCc4cccc(F)c4)c(Cl)c3)c2s1)c1c(Cl)cccc1Cl [2,6-dichloro-N-{3-[4-({3-chloro-4-[(3-fluorobenzyl)oxy]phenyl}amino)thieno[3,2-d]pyrimidin-6-yl]prop-2-ynyl}benzamide] | 31.6 to 100 nM | 1500 to 5000 nM | – |
| O=C(Cc1ccc(Cl)c(Cl)c1)NCC#Cc1cc2ncnc(Nc3ccc(OCc4cccc(F)c4)c(Cl)c3)c2s1 [N-{3-[4-({3-chloro-4-[(3-fluorobenzyl)oxy]phenyl}amino)thieno[3,2-d]pyrimidin-6-yl]prop-2-ynyl}-2-(3,4-dichlorophenyl)acetamide] | > 100 nM | > 5000 nM | – |
| Fc1cccc(COc2ccc(Nc3ncnc4sc(C#Cc5ccccn5)cc34)cc2Cl)c1 [Example 99, N-{3-chloro-4-[(3-fluorobenzyl)oxy]phenyl}-6-(pyridin-2-ylethynyl)thieno[2,3-d]pyrimidin-4-amine] | – | – | 180 °C |
| CN(C)CCNC(=O)NCC#Cc1cc2c(Nc3ccc(OCc4cccc(F)c4)c(Cl)c3)ncnc2s1 [N-{3-[4-({3-chloro-4-[(3-fluorobenzyl)oxy]phenyl}amino)thieno[2,3-d]pyrimidin-6-yl]prop-2-ynyl)N′-[2-(dimethylamino)ethyl]urea] | < 31.6 nM | < 1500 nM | – |
| O=C(NCC#Cc1cc2ncnc(Nc3ccc(OCc4cccc(F)c4)c(Cl)c3)c2s1)c1csc(-c2ccncc2)n1 [N-{3-[4-({3-chloro-4-[(3-fluorobenzyl)oxy]phenyl}amino)thieno[3,2-d]pyrimidin-6-yl]prop-2-ynyl}-2-pyridin-4-yl-1,3-thiazole-4-carboxamide] | 31.6 to 100 nM | 1500 to 5000 nM | – |
| CS(=O)(=O)CCNC(=O)NCC#Cc1cc2c(Nc3ccc(OCc4cccc(F)c4)c(Cl)c3)ncnc2s1 [N-{3-[4-({3-chloro-4-[(3-fluorobenzyl)oxy]phenyl}amino)thieno[2,3-d]pyrimidin-6-yl]prop-2-ynyl}-N′-[2-(methylsulfonyl)ethyl]urea] | < 31.6 nM | < 1500 nM | – |
| Fc1cccc(COc2ccc(Nc3ncnc4sc(C#Cc5nccs5)cc34)cc2Cl)c1 [Example 101, N-{3-chloro-4-[(3-fluorobenzyl)oxy]phenyl}-6-(1,3-thiazol-2-ylethynyl)thieno[2,3-d]pyrimidin-4-amine] | – | – | 204 °C |
| O=C(CCc1ccc(F)cc1)NCC#Cc1cc2ncnc(Nc3ccc(OCc4cccc(F)c4)c(Cl)c3)c2s1 [N-{3-[4-({3-chloro-4-[(3-fluorobenzyl)oxy]phenyl}amino)thieno[3,2-d]pyrimidin-6-yl]prop-2-ynyl}-3-(4-fluorophenyl)propanamide] | 31.6 to 100 nM | 1500 to 5000 nM | – |
| CC(C)CN(CC#Cc1cc2ncnc(Nc3ccc(OCc4cccc(F)c4)c(Cl)c3)c2s1)CC(C)C [N-{3-chloro-4-[(3-fluorobenzyl)oxy]phenyl}-6-[3-(diisobutylamino)prop-1-ynyl]thieno[3,2-d]pyrimidin-4-amine] | > 100 nM | > 5000 nM | – |
| CN1CCN(CC(=O)NCC#Cc2cc3ncnc(Nc4ccc(OCc5cccc(F)c5)c(Cl)c4)c3s2)CC1 [N-{3-[4-({3-Chloro-4-[(3-fluorobenzyl)oxy]phenyl}amino)thieno[3,2-d]pyrimidin-6-yl]prop-2-ynyl}-2-(4-methylpiperazin-1-yl)acetamide] | < 31.6 nM | < 1500 nM | – |
| Fc1cccc(COc2ccc(Nc3ncnc4cc(C#Cc5ccccn5)sc34)cc2Cl)c1 [Example 78, N-{3-chloro-4-[(3-fluorobenzyl)oxy]phenyl}-6-(pyridin-2-yiethynyl)thieno[3,2-d]pyrimidin-4-amine] | – | – | 242 °C |
| Fc1cccc(COc2ccc(Nc3ncnc4cc(C#Cc5ncccn5)sc34)cc2Cl)c1 [Example 77, N-{3-chloro-4-[(3-fluorobenzyl)oxy]phenyl}-6-(pyrimidin-2-ylethynyl)thieno[3,2-d]pyrimidin-4-amine] | – | – | 236 to 240 °C |
| O=C(NCC#Cc1cc2ncnc(Nc3ccc(OCc4cccc(F)c4)c(Cl)c3)c2s1)c1ccc2[nH]ccc2c1 [N-{3-[4-({3-chloro-4-[(3-fluorobenzyl)oxy]phenyl}amino)thieno[3,2-d]pyrimidin-6-yl]prop-2-ynyl}-1H-indole-5-carboxamide] | 31.6 to 100 nM | 1500 to 5000 nM | – |
| Fc1cccc(COc2ccc(Nc3ncnc4sc(C#Cc5ncccn5)cc34)cc2Cl)c1 [N-{3-chloro-4-[(3-fluorobenzyl)oxy]phenyl)-6-(pyrimidin-2-ylethynyl)thieno[2,3-d]pyrimidin-4-amine] | 31.6 to 100 nM | 1500 to 5000 nM | 225 °C |
